Experimental data from ChEMBL document CHEMBL4665825, “Paliasanines A-E, 3,4-Methylenedioxyquinoline Alkaloids Fused with a Phenyl-14-oxabicyclo[3.2.1]octane Unit from Melochia umbellata var. deglabrata” (J Nat Prod, 2020).
Active and inactive are the calls of the source. The calls are words filed in the database; no cut-off is given here.

What was measured:
[1] = system: Human immunodeficiency virus 1; experiment: Antiviral activity against HIV-1 NL4-3 infected in human MT4 cells measured on day 3 by Nano-Glo luciferase assay; format: functional, organism-based; details: time 3.0 day
[2] = Antiproliferative activity against human KB-VIN cells assessed as reduction in cell viability after 72 hrs by SRB assay; format: functional, cell-based; details: KBVIN
MDA-MB-231 [3] = experiment: Antiproliferative activity against human MDA-MB-231 cells assessed as reduction in cell viability after 72 hrs by SRB assay; format: functional, cell-based; details: MDA-MB-231, 72 h
MCF7 = experiment: Antiproliferative activity against human MCF7 cells assessed as reduction in cell viability after 72 hrs by SRB assay; format: functional, cell-based; details: MCF7, 72 h
A549 = experiment: Antiproliferative activity against human A549 cells assessed as reduction in cell viability after 72 hrs by SRB assay; format: functional, cell-based; details: A549, 72 h
KB = experiment: Antiproliferative activity against human KB cells assessed as reduction in cell viability after 72 hrs by SRB assay; format: functional, cell-based
[4] = Selectivity ratio of IC50 for antiproliferative activity against human KB cells to IC50 for antiproliferative activity against KB-VIN cells; format: functional
MDA-MB-231 [5] = experiment: Induction of cell cycle arrest in human MDA-MB-231 cells assessed as accumulation at S phase at 21 uM measured after 24 hrs by propidium iodide staining based flow cytometry analysis; format: functional

SMILES | Activity [1] | IC50 [2] [µM] | IC50 (MDA-MB-231 [3]) [µM] | IC50 (MCF7) [µM] | IC50 (A549) [µM] | IC50 (KB) [µM] | Ratio IC50 [4] | Activity (MDA-MB-231 [5])
COc1ccc(OC)c([C@@]2(O)c3ccc4nc(C)c5c(c4c3[C@@H]3CC[C@H]2O3)OCO5)c1 | inactive | > 10 | > 10 | > 10 | > 10 | > 10 |  | 
CC1(C)C[C@H](O)C[C@@]2(C)OC(=O)C=C12 [LOLIOLIDE] |  | > 10 | > 10 | > 10 | > 10 | > 10 |  | 
CC(=O)O[C@H]1C(=O)[C@@]2(C)[C@H]([C@H](OC(=O)c3ccccc3)[C@]3(O)C[C@H](OC(=O)[C@H](O)[C@@H](NC(=O)c4ccccc4)c4ccccc4)C(C)=C1C3(C)C)[C@]1(OC(C)=O)CO[C@@H]1C[C@@H]2O [PACLITAXEL] |  | 2.35 |  | 0.0135 | 0.0065 | 0.0077 |  | 
CC(C)[C@@H]1NC(=O)[C@@H](NC(=O)/C=C/c2ccccc2)[C@H](C(C)C)Oc2ccc(cc2)/C=C\NC1=O |  | > 10 | > 10 | > 10 | > 10 | > 10 |  | 
COc1ccc(OC)c([C@@]2(O)c3ccc4[nH]c(C)c(OC)c(=O)c4c3[C@@H]3CC[C@H]2O3)c1 |  | > 10 | > 10 | 8.2 | 5.9 | > 10 |  | 
CCCCCCCCc1ccc(OC)c2[nH]c(C)c(OC)c(=O)c12 |  | > 10 | > 10 | > 10 | > 10 | > 10 |  | 
CC[C@@H](C)[C@@H]1NC(=O)[C@@H](NC(=O)[C@H](Cc2ccccc2)N(C)C)[C@H](C(C)C)Oc2ccc(cc2)/C=C\NC1=O |  | > 10 | > 10 | > 10 | 9.5 | > 10 |  | 
CCCCCCCC[C@H]1CCC(=O)c2[nH]c(C)c(OC)c(=O)c21 |  | 8.6 | 6.7 | 6.4 | 8.4 | 17.7 | 2 | Active
COc1ccccc1[C@]1(O)c2ccc3nc(C)c4c(c3c2[C@@H]2CC[C@H]1O2)OCO4 |  | > 10 | > 10 | > 10 | > 10 | > 10 |  | 
CC(=O)/C=C/[C@]1(O)C(C)(C)C[C@H](O)C[C@@]1(C)O |  | > 10 | > 10 | > 10 | > 10 | > 10 |  | 
CC1=CC(=O)CC(C)(C)[C@@]1(O)/C=C/[C@@H](C)O [BLUMENOL A] |  | > 10 | > 10 | > 10 | > 10 | > 10 |  | 
COc1ccc(OC)c([C@]2(O)c3ccc4nc(C)c5c(c4c3[C@@H]3CC[C@H]2O3)OCO5)c1 |  | > 10 | > 10 | > 10 | > 10 | > 10 |  | 
CC1=CC(=O)CC(C)(C)[C@@H]1CC[C@H](C)O |  | > 10 | > 10 | > 10 | > 10 | > 10 |  | 
COc1ccccc1[C@@]1(O)c2ccc3nc(C)c4c(c3c2[C@@H]2CC[C@H]1O2)OCO4 | inactive | > 10 | > 10 | > 10 | > 10 | > 10 |  | 
COc1ccccc1[C@@]1(O)c2ccc3[nH]c(C)c(OC)c(=O)c3c2[C@@H]2CC[C@H]1O2 |  | > 10 | > 10 | 8 | 6.6 | > 10 |  | 
Cc1nc2ccc3c(c2c2c1OCO2)[C@@H]1CC[C@H](O)[C@@]3(c2ccccc2)O1 | inactive | > 10 | > 10 | > 10 | > 10 | > 10 |  | 
